Usually viability stands for a read-out of living cells in per cent, often relative to untreated cells.

In paper PMC12040169 (PLOS Biology, 2025) one finds viability data, which are given here for 80 compounds.

This data set in a line: in vitro. The following applies: human, hela cells, % viability.

With `O=C(Nc1cc(Br)ccc1O)c1cnn2c(C(F)(F)F)cc(-c3cccs3)nc12` [CBK268190], the viability at 28.5 h, 10 µM came to 96%.

On to `Cc1c[n+]2ccsc2n1Cc1ccccc1C#N` [CBK260951B], for which the viability at 28.5 h, 10 µM was 116%.

Consider `CC(CCc1ccc(O)cc1)NC1CCCC1` (centres unmarked) [CBK033987], for which the viability at 28.5 h, 10 µM was determined as 102%.

As to `COc1ncc(-c2nccnc2N[C@@H]2CCN(Cc3ccccc3)C2)c(OC)n1` [CBK036926], the viability at 28.5 h, 10 µM stood at 101%.

In the case of `CC1CCc2c(sc(NC(=S)NC(=O)c3cc4ccccc4o3)c2C#N)C1` (centres unmarked) [CBK266319], the viability at 28.5 h, 10 µM came to 101%.

As for `Cc1ccc(CS(=O)(=O)N2CCC3(CC2)CNC(=O)C3)cc1` [CBK283344], the viability at 28.5 h, 10 µM is 88.5%.

Regarding `N#CCCCN1CCC(Oc2nccnc2OCc2cc(Cl)cc(Cl)c2)CC1` [CBK153634], the viability at 28.5 h, 10 µM is 93.9%.

As for `Cc1ccc(C(=O)NC[C@H]2O[C@@H](CC(=O)N3CCOCC3)[C@H](O)[C@@H]2O)cc1` [CBK288925], the viability at 28.5 h, 10 µM came to 85.5%.

As for `O=S(=O)(O)c1cccc2cccc(Nc3ccccc3)c12` [CBK013362G], the viability at 28.5 h, 10 µM was 84.8%.

On to `O=C(CCCN1C(=O)c2ccccc2C1=O)Nc1ccc(C(=O)O)cc1` [CBK287043], for which the viability at 28.5 h, 10 µM is 94.2%.

Take `CC(C)(C)OC(=O)NCc1ccc(CNCc2ccccc2C(F)(F)F)cc1` [CBK056703]: the viability at 28.5 h, 10 µM is 92.2%.

Regarding `O=C(N/N=C/c1ccncc1)C1CC1C(=O)N/N=C/c1ccncc1` (centres unmarked) [CBK261115], the viability at 28.5 h, 10 µM was found to be 90.2%.

On to `COc1ccc(NC2=CC(=O)CC(c3ccc(C)cc3)C2)c(OC)c1` (centres unmarked) [CBK264845], for which the viability at 28.5 h, 10 µM is 111%.

For the compound `Cc1cc(NC(=O)c2ccc(S(=O)(=O)N3CCOCC3)cc2)nc2c1c(=O)oc1ccccc12` [CBK291134], the viability at 28.5 h, 10 µM was 106%.

For the compound `O=C1CN(C(=O)NCCc2c[nH]c3ccccc23)CCN1` [CBK155866], the viability at 28.5 h, 10 µM stood at 95.8%.

`O=C(O)CC(Cc1ccccc1)(C(=O)O)c1ccccc1` (centres unmarked) [CBK287133]: the viability at 28.5 h, 10 µM was determined as 77.8%.

Regarding `CN(CC(=O)N(C)CC(F)(F)F)Cc1cccnc1` [CBK282075], the viability at 28.5 h, 10 µM came out at 89.1%.

For `CCOC(=O)N1CCCN(C(=O)OCC)CC1` [CBK034324], the viability at 28.5 h, 10 µM was 101%.

Take `Cc1ccc2cc(C(=O)N3CCCCC3CN3CCOCC3)[nH]c2c1` (centres unmarked) [CBK304374]: the viability at 28.5 h, 10 µM was found to be 90.4%.

`COc1cc2ncc(C(=O)NCc3cccs3)c(O)c2cc1OC` [CBK159998]: the viability at 28.5 h, 10 µM was found to be 91.9%.

`COc1ccc(CCNC(=O)N2CCCC(C(=O)O)C2)cc1OC` (centres unmarked) [CBK161354]: the viability at 28.5 h, 10 µM is 100%.

Consider `O=C(O)c1[nH]nc2c1COc1ccccc1-2` [CBK266356], for which the viability at 28.5 h, 10 µM came to 97.5%.

With `COc1ccc(C2Nc3ccccc3C(=O)N2Cc2ccccc2)cc1COc1ccc([N+](=O)[O-])cc1` (centres unmarked) [CBK033690], the viability at 28.5 h, 10 µM amounted to 86.9%.

Regarding `CC(O)c1cc2c(cc1NC(=O)c1cnn3c1NC(c1ccco1)CC3C(F)(F)F)OCO2` (centres unmarked) [CBK268850], the viability at 28.5 h, 10 µM was 83.3%.

As for `COc1ccc(C(=O)N2CCC3(CCN(Cc4cc(OC)c(OC)c(OC)c4)C3)C2)cc1OC` (centres unmarked) [CBK132149], the viability at 28.5 h, 10 µM was 100%.

As to `CCCn1c(-c2ccccc2OC(F)(F)F)n[nH]c1=O` [CBK074238], the viability at 28.5 h, 10 µM was determined as 110%.

For the compound `C[N+]1(C)CCN(C(=O)CCC(=O)N2CC[N+](C)(C)CC2)CC1` [CBK278200I], the viability at 28.5 h, 10 µM is 94.4%.

Consider `CC(=O)Nc1ccc(CNC(=O)CN(C)Cc2cc(C)on2)cc1` [CBK307042], for which the viability at 28.5 h, 10 µM stood at 82.4%.

In the case of `CSc1sc(NC(=O)Nc2cccc(C(F)(F)F)c2)cc1C#N` [CBK017114], the viability at 28.5 h, 10 µM came out at 93.9%.

On to `Cc1cc(NC(=O)c2cc([N+](=O)[O-])ccc2Cl)nc2c1c(=O)oc1ccccc12` [CBK291258], for which the viability at 28.5 h, 10 µM was determined as 90.8%.

Consider `Clc1ccc(COc2cncc(OC3CCN(CC4CC4)C3)n2)cc1Cl` (centres unmarked) [CBK084443], for which the viability at 28.5 h, 10 µM worked out at 86.5%.

For `CC(Sc1nc2ccccc2c(=O)n1C1CC1)C(=O)N1CCOCC1` (centres unmarked) [CBK306045], the viability at 28.5 h, 10 µM amounted to 79.5%.

`CSc1nc(C)cc(OCC(=O)Nc2ccc(Cl)cc2)n1` [CBK267525]: the viability at 28.5 h, 10 µM was found to be 94.8%.

With `Cc1nc2cc(C(=O)O)ccc2[nH]1` [CBK220035], the viability at 28.5 h, 10 µM stood at 84.6%.

`CN(CCNC(=O)Nc1ccc2c(c1)oc(=O)n2C)C1CCCC1` [CBK305503]: the viability at 28.5 h, 10 µM came to 95.1%.

As to `COc1ccc([N+](=O)[O-])cc1NC(=O)C1C2CCC(C2=C(C)C)C1C(=O)O` (centres unmarked) [CBK263686], the viability at 28.5 h, 10 µM was 93.2%.

Turning to `COc1ccc(Nc2nc(N)nc(CN3CC(C)CC(C)C3)n2)cc1` (centres unmarked) [CBK288154], the viability at 28.5 h, 10 µM was 99.2%.

Turning to `Nn1c(SCC(=O)Nc2cccc3ccccc23)nnc1-c1ccccc1Cl` [CBK266080], the viability at 28.5 h, 10 µM came to 97.7%.

Consider `CCc1ocnc1C(=O)NC1CCCN(Cc2ccccc2F)C1` (centres unmarked) [CBK306924], for which the viability at 28.5 h, 10 µM is 104%.

As to `COc1ccc(C(NC(=O)C2CCCN(C(=O)NC(=O)c3ccccc3)C2)c2ccccc2C)cn1` (centres unmarked) [CBK075023], the viability at 28.5 h, 10 µM worked out at 90.9%.

Take `COCCNC(=O)N[C@H](Cc1ccccc1)C(=O)O` [CBK286667]: the viability at 28.5 h, 10 µM came to 85.5%.

Consider `Nc1ccn(C2OC(CO)C(O)C2O)c(=O)n1` (centres unmarked) [CBK024684], for which the viability at 28.5 h, 10 µM is 108%.

As to `CC1Cc2ccccc2N1C(=O)CSc1nnc2sc3ccccc3n12` (centres unmarked) [CBK265398], the viability at 28.5 h, 10 µM was 94%.

For `CN(CC(=O)NNC(=O)c1cccnc1)S(=O)(=O)c1cc(Cl)ccc1Cl` [CBK267388], the viability at 28.5 h, 10 µM amounted to 92.2%.

Turning to `Oc1ccccc1/C=N/CC(O)C/N=C/c1ccccc1O` [CBK261112], the viability at 28.5 h, 10 µM was determined as 103%.

Consider `C=CCNC(=O)Cn1c(-c2ccco2)cc2cccnc21` [CBK282719], for which the viability at 28.5 h, 10 µM was determined as 82.6%.

On to `Cn1c(SCC(=O)Nc2cc(C(C)(C)C)no2)nnc1-c1ccc(C(C)(C)C)cc1` [CBK297133], for which the viability at 28.5 h, 10 µM is 89.6%.

For the compound `Cn1c(C2CC2)nc2c1CCN(Cc1cc(=O)n(C)c(=O)n1C)C2` [CBK304025], the viability at 28.5 h, 10 µM was 115%.

With `CN(C)CCCn1c(=O)n(CC(=O)O)c(=O)c2c3c(sc21)CCC3` [CBK286783], the viability at 28.5 h, 10 µM turned out to be 110%.

In the case of `COc1ccccc1-c1cnc2[nH]c(=O)n(Cc3ccc(F)c(Cl)c3)c2n1` [CBK064662], the viability at 28.5 h, 10 µM amounted to 103%.

For `Cc1ccccc1C(NC(=O)C1CCN(C(=O)CCC2CCCC2)CC1)c1ccccn1` (centres unmarked) [CBK059677], the viability at 28.5 h, 10 µM is 90.5%.

Regarding `Cc1nc2ccc(C(=O)NC(c3ccccc3)c3cccnc3)cc2[nH]1` (centres unmarked) [CBK283259], the viability at 28.5 h, 10 µM was found to be 103%.

Regarding `c1ccc2c(c1)nc(-c1cscn1)n2Cc1ccc(-c2nnn[nH]2)cc1` [CBK266979], the viability at 28.5 h, 10 µM turned out to be 96.6%.

Consider `O=S(=O)(Nc1ccc(C(F)(F)F)cc1Cl)c1cc(Br)c(Cl)s1` [CBK057196], for which the viability at 28.5 h, 10 µM stood at 78.9%.

`O=C(Nc1cc2ccccc2c(N2CCNCC2)n1)c1cnccn1` [CBK036346T]: the viability at 28.5 h, 10 µM turned out to be 95.4%.

`COc1ccc([C@@]23CC[C@@H](NS(=O)(=O)c4ccc5ccccc5c4)C[C@@H]2N(C)CC3)cc1OC` [CBK056848T]: the viability at 28.5 h, 10 µM worked out at 96.8%.

For the compound `Oc1cccc(Sc2nc3ccccc3nc2C(F)(F)F)c1` [CBK093780], the viability at 28.5 h, 10 µM was found to be 109%.

Regarding `O=C(Nc1cccc(C(=O)O)c1)/C(=C\c1ccco1)NC(=O)c1ccc(Br)cc1` [CBK263707], the viability at 28.5 h, 10 µM was 91.3%.

For `COc1ccc(/C=C(\C)C(=O)Nc2cc3ccccc3c(N3CCNCC3)n2)cc1OC` [CBK038937T], the viability at 28.5 h, 10 µM amounted to 82.1%.

`O=C(CC1CCCC1)N1CCCC(c2cc3cccnc3[nH]2)C1` (centres unmarked) [CBK284940]: the viability at 28.5 h, 10 µM was found to be 98.6%.

For `O=C(CN(c1ccc2c(c1)OCCO2)S(=O)(=O)c1ccccc1)N1CCN(Cc2ccccc2)CC1` [CBK266444], the viability at 28.5 h, 10 µM amounted to 113%.

For `COc1cccc(CN2CCC(Cc3ccccc3-c3ccc(C)cc3C)(C(=O)O)CC2)c1` [CBK286420], the viability at 28.5 h, 10 µM was determined as 95.5%.

For `CC(Sc1ccc(Br)c2cccc(C(=O)O)c12)C(=O)O` (centres unmarked) [CBK266226], the viability at 28.5 h, 10 µM was 97.4%.

For `COC(=O)NCCc1c[nH]c2ccc(OC)cc12` [CBK084597], the viability at 28.5 h, 10 µM was 98%.

Regarding `CCOC(=O)/C(=N/O)C(=O)c1c[nH]c2ccccc12` [CBK260979], the viability at 28.5 h, 10 µM was found to be 96%.

For the compound `Cc1cc(O)n2nc(CC(=O)NCc3nnc4n3CCCCC4)nc2n1` [CBK306989], the viability at 28.5 h, 10 µM was 103%.

On to `COCCN1C(=O)CC2(C1=O)C(=O)N(CC(=O)c1ccccc1)c1ccccc12` (centres unmarked) [CBK075875], for which the viability at 28.5 h, 10 µM was 99%.

Regarding `Cn1cncc1C(=O)NC1CCCC1` [CBK200256], the viability at 28.5 h, 10 µM came out at 95.5%.

Turning to `CN(Cc1ccccc1)Cc1c(C2CCNCC2)[nH]c2ncccc12` [CBK285083], the viability at 28.5 h, 10 µM was found to be 96%.

For the compound `CS(=O)(=O)N1C[C@@H]2CCCCN(Cc3cccc(F)c3F)[C@@H]2C1` [CBK285513], the viability at 28.5 h, 10 µM came out at 95.6%.

With `CC1=NNC(=O)C1Cc1c(Cl)cccc1Cl` (centres unmarked) [CBK067754], the viability at 28.5 h, 10 µM was 109%.

For `COc1cc(Cl)cc(/C=N/Nc2nc(Nc3ccc(C)c(Cl)c3)nc(N3CCOCC3)n2)c1O` [CBK262436], the viability at 28.5 h, 10 µM was 102%.

`N#Cc1cc(CN2CCCN(S(=O)(=O)c3ccc(C(F)(F)F)cc3Cl)CC2)ccc1F` [CBK063100]: the viability at 28.5 h, 10 µM is 98.8%.

Consider `CCC(C)NC(=O)CSc1nnc(-c2cccs2)n1CC` (centres unmarked) [CBK296960], for which the viability at 28.5 h, 10 µM amounted to 86.3%.

On to `O=C(NCCCN1CCOCC1)c1ccncc1` [CBK264561F], for which the viability at 28.5 h, 10 µM was 110%.

On to `N#C/C(=C\c1ccc(OCC(=O)O)cc1)C(N)=S` [CBK268917], for which the viability at 28.5 h, 10 µM turned out to be 102%.

Take `Cc1nn(C)c(N2CCNCC2)c1NC(=O)Cc1cn(C)c2ccccc12` [CBK050254T]: the viability at 28.5 h, 10 µM was 94.5%.

For `COc1cccc(NC(=O)CCN2C(=O)c3ccccc3S2(=O)=O)c1` [CBK266003], the viability at 28.5 h, 10 µM was determined as 92.3%.

In the case of `NS(=O)(=O)c1ccc(Cl)c(Cl)c1` [CBK015652], the viability at 28.5 h, 10 µM came to 118%.

With `CCCSc1ccc2[nH]c(NC(=O)CSc3nc[nH]n3)nc2c1` [CBK270181], the viability at 28.5 h, 10 µM turned out to be 51.8%.
